Converted amounts (≈) assume the structure as drawn. Values belong to the compound of their own block, whether it stands above or below them.
Experiments:
Mus musculus [1] = species: Mus musculus; test: Ability to prevent the reserpine induced hypothermia in mice relative to amitriptyline; assay type: functional
Mus musculus [2] = test: Muscle relaxant effect was measured as ED50 which is the dose that causes muscle relaxation in 50% of the mice, po; assay type: functional
Rattus norvegicus [3] = test: Antimuricide effect was observed in the olfactory bulb removed rats; antimuricide effect at 30 mg/kg; + = 31-50%; assay type: functional
Mus musculus [4] = test: Antiphysostigmine effect was measured as ED50,po; assay type: functional
Mus musculus [5] = test: The compound was tested for it's ability to reverse the reserpine induced hypothermia in mice, po; assay type: functional
[6] = Toxicity was measured as LD50,po; assay type: organism-based; conditions: mouse, in vivo
Cavia porcellus = species: Cavia porcellus; test: Concentration required to reducing the histamine induced contraction by 50% was measured; assay type: functional
Rattus norvegicus [7] = test: Antimuricide effect was observed in the olfactory bulb removed rats; antimuricide effect at 30 mg/kg; + = 31 - 50%; assay type: functional
Mus musculus [8] = species: Mus musculus; test: The compound was tested for it's ability to prevent the reserpine induced hypothermia in mice; assay type: functional
Rattus norvegicus [9] = test: Antimuricide effect was observed in the olfactory bulb removed rats; antimuricide effect at 30 mg/kg; ++ = 51 - 70%; assay type: functional
Mus musculus [10] = species: Mus musculus; test: The compound was tested for it's ability to reverse the reserpine induced hypothermia in mice; assay type: functional
Rattus norvegicus [11] = test: Antimuricide effect was observed in the olfactory bulb removed rats; antimuricide effect at 30 mg/kg; ++ = 51-70%; assay type: functional

SMILES: CCNCCCOc1ccccc1Cc1ccccc1.Cl
- Relative potency (Mus musculus [1]): 0

SMILES: CN(C)CCCCOc1ccccc1Oc1ccccc1.Cl
- Relative potency (Mus musculus [1]): 0.58

SMILES: Cc1ccc(Cc2ccccc2OCCCCN(C)C)cc1.Cl
- Relative potency (Mus musculus [1]): 0.18

SMILES: CNCCCCOc1ccc(OC)cc1.Cl
- Relative potency (Mus musculus [1]): 0

SMILES: CN(C)CCCCOc1ccccc1Cc1ccccc1O.Cl
- Relative potency (Mus musculus [1]): 0.77

SMILES: CNCCCCOc1ccc(Cl)cc1Cc1ccccc1.Cl
- Relative potency (Mus musculus [1]): 0.17

SMILES: CNCCCCOc1ccccc1S(=O)(=O)c1ccccc1.Cl
- Relative potency (Mus musculus [1]): 0.17

SMILES: CN(C)CCCCOc1ccc(Cl)cc1Cc1ccccc1.Cl
- Relative potency (Mus musculus [1]): 0.26

SMILES: CNCCCCOc1ccccc1C(O)c1ccccc1.Cl (stereo not given)
- Relative potency (Mus musculus [1]): 0

SMILES: CNCCCCOc1ccccc1Cc1ccc(C)cc1.Cl
- Relative potency (Mus musculus [1]): 0.44

SMILES: CNCCCCOc1ccccc1Cc1ccc(Cl)cc1.Cl
- Relative potency (Mus musculus [1]): 0.27

SMILES: CNCCCCOc1ccccc1OCc1ccccc1.Cl
- Relative potency (Mus musculus [1]): 0

SMILES: CNCCCCOc1ccccc1Sc1ccccc1.Cl
- ED50 (Mus musculus [2]): > 200 mg/kg
- Effect (Rattus norvegicus [3]): 31%
- Relative potency (Mus musculus [1]): 0.89
- ED50 (Mus musculus [4]): > 200 mg/kg
- ED10 (Mus musculus [5]): 15 mg/kg
- LD50 [6]: 980 mg/kg
- IC50 (Cavia porcellus): 2.2 mg/L

SMILES: CN(C)CCCCOc1ccccc1Sc1ccccc1.Cl
- Relative potency (Mus musculus [1]): 0.7

- IC50 (Cavia porcellus): 0.032 mg/L (≈ 0.114 µM)
SMILES: CN(C)CCCN1c2ccccc2CCc2ccccc21 [IMIPRAMINE]
- ED50 (Mus musculus [2]): 190 mg/kg
- ED50 (Mus musculus [4]): 120 mg/kg
- Effect (Rattus norvegicus [7]): 31%

SMILES: CNCCCCCOc1ccccc1Cc1ccccc1.Cl
- Relative potency (Mus musculus [1]): 0.57

SMILES: CCNCCCCOc1ccccc1Cc1ccccc1.Cl
- Relative potency (Mus musculus [1]): 0.53

SMILES: CNCCCCOc1ccccc1C(=O)c1ccccc1.Cl
- Relative potency (Mus musculus [1]): 0

SMILES: CNCCCCOc1ccccc1[S+]([O-])c1ccccc1.Cl (stereo not given)
- Relative potency (Mus musculus [1]): 0.49

- IC50 (Cavia porcellus): 0.001 mg/L
SMILES: CN(C)CCOc1ccccc1Cc1ccccc1.Cl
- Relative potency (Mus musculus [1]): 0

SMILES: CCOc1ccccc1OCCCCNC.Cl
- Relative potency (Mus musculus [1]): 0

SMILES: CNCCCCOc1ccccc1C(=O)Nc1ccccc1.Cl
- Relative potency (Mus musculus [1]): 0.36

SMILES: CNCCCCOc1ccccc1CCc1ccccc1.Cl
- Relative potency (Mus musculus [1]): 0

SMILES: Cl.c1ccc(Cc2ccccc2OCCCCN2CCCCC2)cc1
- Relative potency (Mus musculus [1]): 0.41

SMILES: CN1CCN(CCCCOc2ccccc2Cc2ccccc2)CC1.Cl
- Relative potency (Mus musculus [1]): 0

SMILES: CNCCCCOc1ccc(Cc2ccccc2)cc1.Cl
- Relative potency (Mus musculus [1]): 0

SMILES: CNCCCCOc1ccccc1C1CCCCC1.Cl
- Relative potency (Mus musculus [1]): 0.28

SMILES: CNCCCCOc1ccccc1Cc1ccc(OC)cc1.Cl
- Relative potency (Mus musculus [1]): 0

SMILES: CNCCCCOc1ccccc1C(C)c1ccccc1.Cl (stereo not given)
- Relative potency (Mus musculus [1]): 0.66

SMILES: CN(C)CCCCOc1ccccc1Cc1ccc(Cl)cc1.Cl
- Relative potency (Mus musculus [1]): 0.17

SMILES: COc1ccc(Cc2ccccc2OCCCCN(C)C)cc1.Cl
- Relative potency (Mus musculus [1]): 0

SMILES: CNCCCCOc1ccccc1Nc1ccccc1.Cl
- Relative potency (Mus musculus [8]): 0.29

SMILES: CN(C)CCCCOc1ccccc1Cc1ccccc1.Cl
- Relative potency (Mus musculus [1]): 0

SMILES: Cl.c1ccc(Cc2ccccc2OCCCCN2CCOCC2)cc1
- Relative potency (Mus musculus [1]): 0.3

SMILES: CN(C)CCC=C1c2ccccc2CCc2ccccc21 [AMITRIPTYLINE]
- ED50 (Mus musculus [2]): 40 mg/kg
- Relative potency (Mus musculus [1]): 5.8
- ED50 (Mus musculus [4]): 35 mg/kg
- Effect (Rattus norvegicus [7]): 31%
- LD50 [6]: 300 mg/kg
- IC50 (Cavia porcellus): 0.0083 mg/L (≈ 0.0299 µM)

SMILES: CC(c1ccccc1)c1ccccc1OCCCCN(C)C.Cl (stereo not given)
- Relative potency (Mus musculus [1]): 0.36

SMILES: CN(C)CCCCOc1ccccc1Cl.Cl
- Relative potency (Mus musculus [1]): 0.47

SMILES: Cc1cccc(Cc2ccccc2)c1OCCCCN(C)C.Cl
- Relative potency (Mus musculus [1]): 0.66

SMILES: CN(C)CCCCCOc1ccccc1Cc1ccccc1.Cl
- Relative potency (Mus musculus [1]): 0.23

SMILES: CNCCCCOc1ccccc1Cc1ccccc1O.Cl
- ED50 (Mus musculus [2]): > 200 mg/kg
- Effect (Rattus norvegicus [9]): 51%
- Relative potency (Mus musculus [1]): 0.99
- ED50 (Mus musculus [4]): > 200 mg/kg
- ED10 (Mus musculus [10]): 15 mg/kg
- LD50 [6]: 750 mg/kg
- IC50 (Cavia porcellus): 2.5 mg/L

SMILES: CNCCCCOc1ccc(O)cc1Cc1ccccc1.Cl
- Relative potency (Mus musculus [1]): 0.31

SMILES: CNCCCCOc1ccccc1Cl.Cl
- Relative potency (Mus musculus [1]): 0

SMILES: CNCCCCOc1ccccc1Cc1ccccc1.Cl
- ED50 (Mus musculus [2]): > 200 mg/kg
- Relative potency (Mus musculus [1]): 0.78
- ED50 (Mus musculus [4]): > 200 mg/kg
- ED10 (Mus musculus [10]): 12.5 mg/kg
- LD50 [6]: 1000 mg/kg
- IC50 (Cavia porcellus): 1.1 mg/L

SMILES: Cl.NCCCCOc1ccccc1Cc1ccccc1
- Relative potency (Mus musculus [1]): 0

SMILES: CNCCCCOc1ccccc1Oc1ccccc1.Cl
- ED50 (Mus musculus [2]): > 200 mg/kg
- Relative potency (Mus musculus [1]): 1.1
- ED50 (Mus musculus [4]): > 200 mg/kg
- ED10 (Mus musculus [5]): 8.8 mg/kg
- Effect (Rattus norvegicus [11]): 51%
- LD50 [6]: 600 mg/kg
- IC50 (Cavia porcellus): 1.6 mg/L

SMILES: CN(C)CCCOc1ccccc1Cc1ccccc1.Cl
- Relative potency (Mus musculus [1]): 0

SMILES: CNCCOc1ccccc1Cc1ccccc1.Cl
- Relative potency (Mus musculus [1]): 0

SMILES: CNCCCCOc1ccccc1Cc1ccccc1OC.Cl
- Relative potency (Mus musculus [1]): 0.85
